# Laboratory results published in PubChem BioAssay (NCI).
# Several values for one entry are separate records, joined by “and”; a condition that tells them apart may be missing. Equal entries are not always repeated.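 Protocol summary: plate cells (96-well), add compound at 5 concentrations, incubate 48 h, interpolate endpoints linearly. GI50 is the concentration that inhibits growth by half. Definition used: TGI = concentration required for complete inhibition of growth.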
# Columns and labels:
# Test in all cases: NCI anticancer screen, dose series, 48 h
# COLO 205 colon = system: COLO 205 colon
# IGROV1 ovarian = system: IGROV1 ovarian
# SF-295 CNS = system: SF-295 CNS
# NCI-H226 lung = system: NCI-H226 lung
# SK-OV-3 ovarian = system: SK-OV-3 ovarian
# NCI-H23 lung = system: NCI-H23 lung
# CAKI-1 renal = system: CAKI-1 renal
# MCF7 breast = system: MCF7 breast
SMILES,GI50 (COLO 205 colon),TGI (COLO 205 colon),GI50 (IGROV1 ovarian),TGI (IGROV1 ovarian),GI50 (SF-295 CNS),TGI (SF-295 CNS),GI50 (NCI-H226 lung),TGI (NCI-H226 lung),GI50 (SK-OV-3 ovarian),TGI (SK-OV-3 ovarian),GI50 (NCI-H23 lung),TGI (NCI-H23 lung),GI50 (CAKI-1 renal),TGI (CAKI-1 renal),GI50 (MCF7 breast),TGI (MCF7 breast)
COc1cc2nc(-c3cnc(N(C)C)nc3)nc(NC3CCN(Cc4ccccc4)CC3)c2cc1OC,0.637 µM,2.09 µM,1.73 µM,3.43 µM,1.54 µM,2.97 µM,1.73 µM,3.92 µM,1.7 µM,3.08 µM,1.69 µM,4.11 µM,1.44 µM,2.81 µM,–,–
Cc1cc(N2CCCCC2)nc(N(CCCNc2ccnc3cc(Cl)ccc23)Cc2ccco2)n1,1.67 µM,3.53 µM,1.82 µM,6.57 µM,1.29 µM,3.59 µM,2.9 µM,11.8 µM,3.35 µM,13.2 µM,1.58 µM,3.8 µM,–,–,1.81 µM,5.13 µM
O=c1c2cccc(Cl)c2sc2c(NCCCNCCO)nc3ccccc3c12,1.9 µM,4.39 µM,0.941 µM,6.86 µM,6.29 µM,20.2 µM,6.24 µM,23.9 µM,–,–,3.62 µM,16.5 µM,3.79 µM,17.6 µM,1.13 µM,2.66 µM
Cn1ccnc1C(=O)/C=C/c1ccc(C(=O)Nc2ccc(Cl)cc2)cc1,1.03 µM,> 33.3 µM,0.855 µM,2.62 µM,1.46 µM,6.11 µM,3.11 µM,18 µM,1.87 µM,> 33.3 µM,1.25 µM,7.62 µM,1.17 µM,> 33.3 µM,0.899 µM,24.1 µM
CCN(CC)CCCC(C)Nc1cnc(C(=O)Nc2ccc(Cl)c3cccnc23)cn1 (stereo unspecified),1.58 µM,3.23 µM,1.62 µM,4.11 µM,2.11 µM,4.92 µM,4.73 µM,20.7 µM,12.9 µM,26 µM,5.04 µM,19.6 µM,1.78 µM,4.1 µM,1.68 µM,4.39 µM
COc1cc2c3c(n(CCCCOC(=O)C(F)(F)F)c(=O)c2cc1OC)-c1cc2c(cc1C3=O)OCO2,> 100 µM,> 100 µM,> 26.3 µM,> 100 µM,> 41.7 µM,> 100 µM,98.6 µM,> 100 µM,> 100 µM,> 100 µM,> 100 µM,> 100 µM,> 21.8 µM,> 100 µM,> 48.8 µM,> 100 µM
CC(=O)N1N=C2/C(=C/c3ccccc3)CC(C)CC2C1c1ccccc1 (stereo unspecified),16.5 µM,45.6 µM,12.1 µM,41.9 µM,15.9 µM,35.1 µM,15.3 µM,34 µM,17.1 µM,40.3 µM,14.4 µM,28 µM,19.1 µM,41.8 µM,10.1 µM,22.6 µM
O=[N+]([O-])c1ccc(Br)c([N+](=O)[O-])c1,1.72 µM,3.32 µM,1.92 µM,3.94 µM,2.38 µM,5.96 µM,8.36 µM,23.5 µM,8.37 µM,20.6 µM,1.82 µM,3.66 µM,0.406 µM,0.954 µM,1.9 µM,4.75 µM
Oc1ccc2cc(Br)ccc2c1-c1c(O)ccc2cc(Br)ccc12,1.77 µM,3.38 µM,2.06 µM,11.8 µM,2.46 µM,6.79 µM,2.66 µM,8.9 µM,4.72 µM,17.3 µM,2.23 µM,5.82 µM,2.27 µM,8.77 µM,2.49 µM,6.76 µM
O=C1NN(c2ccc(C(=O)O)cc2)C(=O)/C1=C\c1ccc([N+](=O)[O-])o1,20.9 µM,38.8 µM,20.5 µM,52.6 µM,> 100 µM,> 100 µM,> 100 µM,> 100 µM,> 100 µM,> 100 µM,75.1 µM,> 100 µM,16.1 µM,31.1 µM,22.4 µM,50.5 µM
CC1=C(C(=O)Nc2ccc(F)c(Cl)c2)C(c2ccccc2Cl)NC(=S)N1 (stereo unspecified),23.9 µM,> 50 µM,22.8 µM,> 50 µM,39.8 µM,> 50 µM,–,–,> 50 µM,> 50 µM,> 50 µM,> 50 µM,37 µM,> 50 µM,21.7 µM,> 50 µM
C=C1C(=O)O[C@H]2[C@H]1CC/C(COC(=O)CCCCC(=O)OC/C1=C/CC[C@@]3(C)O[C@H]3[C@H]3OC(=O)C(=C)[C@@H]3CC1)=C\CC[C@@]1(C)O[C@@H]21,1.29 µM,3.31 µM,–,–,6.32 µM,> 100 µM,1.9 µM,4.36 µM,33.4 µM,> 100 µM,2.76 µM,14 µM,–,–,–,–
CC[C@@H](C(=O)[C@@H](C)[C@@H](O)[C@H](C)[C@@H]1O[C@@H]([C@@H](CC)C(=O)O)CC[C@@H]1C)C1O[C@]2(C=CC(=O)[C@]3(CC[C@@](C)([C@H]4CC[C@](O)(CC)[C@H](C)O4)O3)O2)[C@H](C)C[C@@H]1C (stereo partly specified),0.159 µM,2.1 µM,2.44 µM,20.4 µM,1.21 µM,12.8 µM,1.06 µM,9.77 µM,3.7 µM,16 µM,0.0979 µM,8.93 µM,0.765 µM,11.8 µM,0.0669 µM,12.8 µM
COc1ccc(N(CC(=O)NCCC[Te]c2ccccc2)C(=O)c2ccccc2)cc1,2.58 µM,6.03 µM,2.88 µM,8.27 µM,1.68 µM,8.17 µM,2.62 µM,7.21 µM,2.55 µM,6 µM,3.17 µM,9.36 µM,2.98 µM,14.9 µM,3.17 µM,10.8 µM
COC(=O)Nc1nc2ccc(Oc3ccc(NC(=O)Nc4cccc(C(=O)O)c4)cc3)cc2[nH]1,6.21 µM,> 16.5 µM,12.7 µM,> 25 µM,5.61 µM,> 21.7 µM,5.2 µM,> 25 µM,5.53 µM,16.3 µM,9.64 µM,> 25 µM,> 23.8 µM,> 25 µM,4.73 µM,24.3 µM
COc1cc(C(=O)c2ccc3c(c2)OCO3)cc(OC)c1OC,1.37 µM,6.2 µM,1.45 µM,> 45.5 µM,1.55 µM,–,8.76 µM,> 100 µM,2.84 µM,33.1 µM,4.93 µM,> 100 µM,1.88 µM,> 27.4 µM,0.824 µM,> 100 µM

SMILES,GI50 (COLO 205 colon),TGI (COLO 205 colon),GI50 (IGROV1 ovarian),TGI (IGROV1 ovarian),GI50 (SF-295 CNS),TGI (SF-295 CNS),GI50 (NCI-H226 lung),TGI (NCI-H226 lung),GI50 (SK-OV-3 ovarian),TGI (SK-OV-3 ovarian),GI50 (NCI-H23 lung),TGI (NCI-H23 lung),GI50 (CAKI-1 renal),TGI (CAKI-1 renal),GI50 (MCF7 breast),TGI (MCF7 breast)
CC1=C[C@H]2c3c(c(O)c(O)c4oc5c(C)cccc5c(=O)c34)[C@H](c3cc(O)c(O)c4oc5c(C)cccc5c(=O)c34)[C@H]2C(C)(C)C1,2.41 µM,6.8 µM,1.39 µM,5.69 µM,1 µM,2.84 µM,2.21 µM,5.99 µM,2.46 µM,9.96 µM,1.24 µM,3.42 µM,1.5 µM,9.08 µM,2 µM,6.3 µM
COc1cc2nc3sc(C(=O)Nc4ccc(C(=O)OC(C)C)cc4)c(C(=O)Nc4ccc(Cl)cc4C)n3c(=O)c2cc1OC,7.02 µM,51.9 µM,0.69 µM,17.8 µM,11.2 µM,29 µM,16.6 µM,43.4 µM,23.3 µM,70 µM,13.6 µM,40.5 µM,26.1 µM,> 100 µM,14.1 µM,> 100 µM
c1ccc(Cn2cc3c(c2-c2ccccc2)CCc2cnoc2-3)cc1,2.9 µM,11.1 µM,5.51 µM,> 100 µM,3.16 µM,31.5 µM,14.7 µM,> 100 µM,7.36 µM,> 100 µM,4.92 µM,69.2 µM,4.4 µM,> 100 µM,3.44 µM,> 100 µM
CC1=NN(c2ccccc2)C(=O)C1N=Nc1ccc([As](=O)(O)O)c(O)c1 (stereo unspecified),–,> 100 µM,–,> 100 µM,–,> 100 µM,–,> 100 µM,–,> 100 µM,–,> 100 µM,–,> 100 µM,–,> 100 µM
Cn1cc(-c2nc(-c3c[nH]c4ncccc34)cs2)c2cc(F)ccc21,2.69 µM,8.52 µM,2.51 µM,13.1 µM,2.18 µM,6.93 µM,4.63 µM,25.9 µM,3.9 µM,32.3 µM,2.4 µM,10.1 µM,2.2 µM,8.44 µM,1.13 µM,6.53 µM
O=c1cc(-c2cccc(C(F)(F)F)c2)[nH]c2cc3c(cc12)OCO3,5.1 µM,24 µM and > 100 µM,–,50 µM,–,–,–,–,0.326 µM,29.1 µM and 16.8 µM,0.276 µM,–,–,> 100 µM,0.95 µM,50 µM and > 100 µM
CCOc1cccc(/C=N/NC(=O)c2ccc(Nc3ccnc(C(F)(F)F)c3)cc2)c1O,1.14 µM,> 38.3 µM,2.32 µM,> 23.9 µM,1.28 µM,40.6 µM,2.08 µM,22.5 µM,2.01 µM,> 57.8 µM,2.26 µM,38.6 µM,1.36 µM,> 100 µM,0.7 µM,> 59 µM
C[C@@H]1CN(C(=O)c2ccc(NC(=O)c3cc(O[C@H](C)c4c(Cl)ccc(F)c4Cl)c(N)nn3)cc2)C[C@H](C)N1,–,–,4.38 µM,20.4 µM,1.11 µM,10.5 µM,3.9 µM,22.5 µM,11.1 µM,23.1 µM,3.17 µM,20.6 µM,–,–,0.567 µM,12.6 µM
CCOC(C)C(/C=N/NC(N)=S)=NNC(N)=S (stereo unspecified),–,> 100 µM,–,–,–,> 100 µM,–,–,–,> 100 µM,–,> 100 µM,–,> 100 µM,–,–
O=C1CC(c2ccc(N3CCOCC3)cc2)(c2ccsc2)NC(=O)C1Sc1ccccc1Cl (stereo unspecified),> 100 µM,> 100 µM,22.4 µM,> 100 µM,67 µM,> 100 µM,> 100 µM,> 100 µM,> 100 µM,> 100 µM,65.5 µM,> 100 µM,28.4 µM,> 100 µM,57.2 µM,> 100 µM
Cc1nc(Cl)nc(Cl)c1C,–,–,–,> 100 µM,–,> 100 µM,–,> 100 µM,–,> 100 µM,–,> 100 µM,–,–,–,> 100 µM
COc1ccccc1OCC(=O)Nc1sc2c(c1C(N)=O)CCC2,> 100 µM,> 100 µM,> 100 µM,> 100 µM,–,–,44.3 µM,> 100 µM,> 100 µM,> 100 µM,> 100 µM,> 100 µM,> 100 µM,> 100 µM,> 100 µM,> 100 µM
CC(C)=CCC[C@H](C)[C@@H]1CC[C@]2(C)C3CC[C@]4(OC4(C)C)C(CCCO)[C@]3(C)CC[C@@]12C (stereo partly specified),31.5 µM,> 100 µM,81.7 µM,> 100 µM,27.9 µM,63.3 µM,10 µM,57.4 µM,–,–,18.7 µM,40.2 µM,21.7 µM,44.4 µM,18.1 µM,43.6 µM
CN(C)c1ccc(N2Cc3ccccc3OC3=C2C(=O)c2c(O)ccc(O)c2C3=O)cn1,0.174 µM,0.38 µM,0.28 µM,1 µM,1.8 µM,4.32 µM,0.854 µM,3.66 µM,3.05 µM,11.6 µM,0.277 µM,0.927 µM,–,–,0.15 µM,0.456 µM
CC1CC2(C)ON=C(c3ccccc3)N2c2ccccc2S1 (stereo unspecified),22.6 µM,56.2 µM,53 µM,–,28.9 µM,79.1 µM,–,–,9.55 µM,91.9 µM,28.1 µM,97.5 µM,78.6 µM,–,31.4 µM,79 µM
